In PMC7356613, “Unsymmetrically-Substituted 5,12-dihydrodibenzo[b,f][1,4]diazocine-6,11-dione Scaffold—A Useful Tool for Bioactive Molecules Design” (Molecules, 2020):
Where two headings read alike, the source gives them in different places.

What was measured:
[1] = system: BICR18 cells (laryngeal squamous cell carcinoma); experiment: Alamar Blue cytotoxicity assay, BICR18; assay type: cell-based; conditions: 300 µM, bracketed values, read-out: proliferation inhibition expressed as a percentage at highest concentration used
Experimental: (§1) HeLa, U87, BICR18, EUFA30 cell lines were cultured in DMEM medium (Life Technology) supplemented with 10% fetal bovine serum (Life Technology) and 0.1% antibiotics, penicillin and streptomycin (Life Technology). Cells were grown in a humidified atmosphere of CO2/air (5/95%) at 37 °C.
(§2) Exponentially growing cells were seeded onto a 96-well plate at the density of 2 × 10^3 cells/well, cultured for 18 h, and treated with newly synthesized derivatives at concentrations 1–300 µM, or with DMSO as a control, for 24 or 48 h. Alamar Blue (Invitrogen) was added accordingly to manufacturer protocol. After 4 h, light emission at 590 nm was measured with excitation at 560 nm using a scanning multiwell spectrophotometer (DTX 880, Beckman Coulter). The experiments were carried out at least three times with three replicates for each inhibitor concentration. After background subtraction, inhibition rate, IC50 was calculated as the concentration of the component inhibiting cell growth by 50%. All the calculations were performed using Origin 9.0 software.

[2] = system: EUFA30 cells (non-cancerous human fibroblasts); experiment: Alamar Blue cytotoxicity assay, EUFA30; assay type: cell-based; conditions: Fibroblast, 300 µM, bracketed values, read-out: proliferation inhibition expressed as a percentage at highest concentration used
Experimental: as §1, §2

[3] = system: U87 cells (human primary glioblastoma); experiment: Alamar Blue cytotoxicity assay, U87; assay type: cell-based; conditions: U-87 MG, 300 µM, bracketed values, read-out: proliferation inhibition expressed as a percentage at highest concentration used
Experimental: as §1, §2

[4] = system: HeLa cells (cervix adenocarcinoma); experiment: Alamar Blue cytotoxicity assay, HeLa; assay type: cell-based; conditions: Homo sapiens, 300 µM, bracketed values, read-out: proliferation inhibition expressed as a percentage at highest concentration used
Experimental: as §1, §2

`O=C1Nc2ccccc2NC(=O)c2ccccc21` [Compound 3a, 5,12-dihydrodibenzo[b,f][1,4]diazocine-6,11-dione] showed an inhibition at 300 µM ([1]; BICR18, 24 h) of 7.1%, an inhibition at 300 µM ([2]; EUFA30, 24 h) of 21.2% and an inhibition at 300 µM ([2]; EUFA30, 48 h) of 9%. The inhibition at 300 µM ([3]; U87, 24 h) was 17.6%, the inhibition at 300 µM ([4]; 24 h) was 20.7% and the inhibition at 300 µM ([4]; 48 h) was 1.5%. For the same molecule, the melting point was 286 to 287 °C.
In the case of `O=C1Nc2ccc([N+](=O)[O-])cc2NC(=O)c2ccccc21` [Compound 3b, 2-nitro-5,12-dihydrodibenzo[b,f][1,4]diazocine-6,11-dione], the inhibition at 300 µM ([1]; BICR18, 24 h) is reported as 2.2%, the inhibition at 300 µM ([2]; EUFA30, 24 h) is reported as 31% and the inhibition at 300 µM ([2]; EUFA30, 48 h) is reported as 18.6%. For the same molecule, the inhibition at 300 µM ([3]; U87, 24 h) was 10.4%, the inhibition at 300 µM ([4]; 24 h) was 33.2% and the inhibition at 300 µM ([4]; 48 h) was 4.7%. For the same molecule, the melting point was 230 °C (dec.).
`O=C(c1ccccc1)c1ccc2c(c1)NC(=O)c1ccccc1C(=O)N2` [Compound 3c, 2-benzoyl-5,12-dihydrodibenzo[b,f][1, 4]diazocine-6,11-dione] gave an inhibition at 300 µM ([1]; BICR18, 24 h) of 10%, an inhibition at 300 µM ([2]; EUFA30, 24 h) of 28.8% and an inhibition at 300 µM ([3]; U87, 24 h) of 15%. It also gave an inhibition at 300 µM ([4]; 24 h) of 14.5% and a melting point of 156 to 157 °C.
`O=C1Nc2ccccc2NC(=O)c2cc([N+](=O)[O-])ccc21` [Compound 3d, 8-nitro-5,12-dihydrodibenzo[b,f][1,4]diazocine-6,11-dione] showed an inhibition at 300 µM ([1]; BICR18, 24 h) of 25.1%, an inhibition at 300 µM ([1]; BICR18, 48 h) of 2.5% and an inhibition at 300 µM ([2]; EUFA30, 24 h) of 9.2%. It also gave an inhibition at 300 µM ([2]; EUFA30, 48 h) of 4.2%, an inhibition at 300 µM ([3]; U87, 24 h) of 27.5% and an inhibition at 300 µM ([4]; 24 h) of 23.4%. It also gave an inhibition at 300 µM ([4]; 48 h) of 3.9% and a melting point of 243 to 244 °C.
`CN1C(=O)c2ccccc2C(=O)Nc2ccccc21` [Compound 3e, 5-methyl-5,12-dihydrodibenzo[b,f][1,4]diazocine-6,11-dione] gave an inhibition at 300 µM ([1]; BICR18, 24 h) of 22.7%, an inhibition at 300 µM ([2]; EUFA30, 24 h) of 31.6% and an inhibition at 300 µM ([2]; EUFA30, 48 h) of 17.5%. The inhibition at 300 µM ([3]; U87, 24 h) was 34.1%, the inhibition at 300 µM ([4]; 24 h) was 19.8% and the inhibition at 300 µM ([4]; 48 h) was 5.7%. For the same molecule, the melting point was 206 to 207 °C.
Work on `CN1C(=O)c2cscc2C(=O)Nc2ccccc21` [Compound 3i, 5-methyl-5,10-dihydrobenzo[b]thieno[3,4-f][1,4]diazocine-4,11-dione] yielded an inhibition at 300 µM ([1]; BICR18, 24 h) of 24%, an inhibition at 300 µM ([2]; EUFA30, 24 h) of 29.4% and an inhibition at 300 µM ([2]; EUFA30, 48 h) of 1.5%. It also gave an inhibition at 300 µM ([3]; U87, 24 h) of 36.6%, an inhibition at 300 µM ([3]; U87, 48 h) of 2.8% and an inhibition at 300 µM ([4]; 24 h) of 14.8%. For the same molecule, the inhibition at 300 µM ([4]; 48 h) was 1.6% and the melting point was 241 to 242 °C.
`CCOC(=O)c1cc2c(cc1C(=O)OCC)C(=O)Nc1ccccc1NC2=O` [Compound 3k, diethyl 6,11-dioxo-5,6,11,12-tetrahydrodibenzo[b,f][1,4]diazocine-8,9-dicarboxylate] gave an inhibition at 300 µM ([1]; BICR18, 24 h) of 16.8%, an inhibition at 300 µM ([1]; BICR18, 48 h) of 5.6% and an inhibition at 300 µM ([2]; EUFA30, 24 h) of 36.7%. For the same molecule, the inhibition at 300 µM ([3]; U87, 24 h) was 37.2%, the inhibition at 300 µM ([3]; U87, 48 h) was 3.1% and the inhibition at 300 µM ([4]; 24 h) was 28.2%. The melting point was 242 to 243 °C.
`CN1C(=O)c2ccccc2C(=O)N(C)c2ccccc21` [Compound 3l, 5,12-dimethyl-5,12-dihydrodibenzo[b,f][1,4]diazocine-6,11-dione] showed an inhibition at 300 µM ([1]; BICR18, 24 h) of 22.1%, an inhibition at 300 µM ([2]; EUFA30, 24 h) of 38.1% and an inhibition at 300 µM ([2]; EUFA30, 48 h) of 19.5%. It also gave an inhibition at 300 µM ([3]; U87, 24 h) of 39%, an inhibition at 300 µM ([4]; 24 h) of 29.5% and an inhibition at 300 µM ([4]; 48 h) of 2.8%. For the same molecule, the melting point was 265 to 266 °C.
With `CN(C)CCN1C(=O)c2ccccc2C(=O)N(Cc2ccccc2)c2ccccc21` [Compound 3m, 5-benzyl-12-(2-(dimethylamino)ethyl)-5,12-dihydrodibenzo[b,f][1,4]diazocine-6,11-dione] the inhibition at 300 µM ([1]; BICR18, 24 h) was 30.1%, the inhibition at 300 µM ([1]; BICR18, 48 h) was 4.7% and the inhibition at 300 µM ([2]; EUFA30, 24 h) was 42.2%. It also gave an inhibition at 300 µM ([2]; EUFA30, 48 h) of 9.9%, an inhibition at 300 µM ([3]; U87, 24 h) of 36.8% and an inhibition at 300 µM ([3]; U87, 48 h) of 4.1%. For the same molecule, the inhibition at 300 µM ([4]; 24 h) was 23.4% and the melting point was 154 to 155 °C.
For `O=C1CCC(=O)Nc2ccccc2N1` [Compound 6, 1,3,4,6-tetrahydrobenzo[b][1,4]diazocine-2,5-dione], the inhibition at 300 µM ([1]; BICR18, 24 h) was 11.3%, the inhibition at 300 µM ([2]; EUFA30, 24 h) was 29.4% and the inhibition at 300 µM ([2]; EUFA30, 48 h) was 14%. The inhibition at 300 µM ([3]; U87, 24 h) was 19.6%, the inhibition at 300 µM ([4]; 24 h) was 21.5% and the inhibition at 300 µM ([4]; 48 h) was 4.3%. For the same molecule, the melting point was 244 to 245 °C.
